Results reported in paper PMC13266999, “Designing Antibiotics with Inherent Resistance to Efflux as a Strategy to Revive Discovery against Multidrug-Resistant Pathogens” (Journal of Medicinal Chemistry, 2026).
≈ marks a conversion by molar mass, not a printed value. Where two headings read alike, the source gives them in different places. Values belong to the compound of their own block, whether it stands above or below them.

Columns and labels:
E. faecalis = assay: MIC (microbroth dilution); format: cell-based, Enterococcus faecalis
Description: (§1) All bacteria were maintained on tryptic soy agar (TSA), except Streptococcus spp., which were maintained on Columbia agar plates containing 5% horse blood. […] Bacteria were grown to stationary phase in liquid culture overnight, with shaking at 200 rpm, before being back diluted to the relevant starting concentration for each assay below. MICs were measured by the microbroth dilution method. […] Absorbance at OD600 was read on a CLARIOstar spectrophotometer (BMG Labtech) and the MIC was defined as the minimum concentration of compound where no visible growth was detected. […] MICs were also performed in the presence of the outer membrane permeator, polymyxin b nonapeptide (PMBN) following the same MIC method but with the following variation. The 2-fold dilution series of compound was prepared as above, then 50 μL of PMBN at a final concentration of 30 μg/mL was added to relevant wells, while 50 μL/well of blank media was added to the remaining wells. Bacteria were then added at 50 μL/well for a starting concentration as above. […] The MICs were read and defined as above. All animal procedures were performed by the contract research organization Pharmacology Discovery Services Taiwan in accordance with the Guide for the Care and Use of Laboratory Animals. The procedures were approved by the Institutional Ethics Committee of Pharmacology Discovery Services Taiwan, Ltd. (approval no. AB127662), in compliance with animal welfare legislation in Taiwan.

E. faecium = assay: MIC (microbroth dilution); format: cell-based, Enterococcus faecium
Description: (§2) All bacteria were maintained on tryptic soy agar (TSA), except Streptococcus spp., which were maintained on Columbia agar plates containing 5% horse blood. All bacterial assays were carried out in tryptic soy broth (TSB), except for Streptococcus spp. which were grown in cation-adjusted Mueller Hinton broth containing 2.5% lysed horse blood. Bacteria were grown to stationary phase in liquid culture overnight, with shaking at 200 rpm, before being back diluted to the relevant starting concentration for each assay below. MICs were measured by the microbroth dilution method. […] Absorbance at OD600 was read on a CLARIOstar spectrophotometer (BMG Labtech) and the MIC was defined as the minimum concentration of compound where no visible growth was detected. The compounds were prepared as a DMSO stock and equivalent concentrations of DMSO had no effect on bacterial growth. MICs were also performed in the presence of the outer membrane permeator, polymyxin b nonapeptide (PMBN) following the same MIC method but with the following variation. The 2-fold dilution series of compound was prepared as above, then 50 μL of PMBN at a final concentration of 30 μg/mL was added to relevant wells, while 50 μL/well of blank media was added to the remaining wells. Bacteria were then added at 50 μL/well for a starting concentration as above. Thirty μg/mL of PMBN had no effect on bacterial growth. The MICs were read and defined as above. All animal procedures were performed by the contract research organization Pharmacology Discovery Services Taiwan in accordance with the Guide for the Care and Use of Laboratory Animals. The procedures were approved by the Institutional Ethics Committee of Pharmacology Discovery Services Taiwan, Ltd. (approval no. AB127662), in compliance with animal welfare legislation in Taiwan.

S. haemolyticus = assay: MIC (microbroth dilution); format: cell-based, Staphylococcus haemolyticus; conditions: SH324
Description: as §2

Acinetobacter baumannii = assay: MIC (microbroth dilution); format: cell-based
Description: as §2

Pseudomonas aeruginosa = assay: MIC (microbroth dilution); format: cell-based
Description: as §2

E. coli = assay: MIC (microbroth dilution); format: cell-based; conditions: Escherichia coli
Description: as §1

A. baumannii = A. baumannii efflux chequerboard assay; format: cell-based, Acinetobacter baumannii; conditions: for MIC: Acinetobacter baumannii
Description: Checkerboard assays were performed by preparing two separate 2-fold dilution series of compounds in two 96 well plates, one horizontally, one vertically. […] Plates were incubated at 37 C for 20 h and the absorbance (OD600) was read on a CLARIOstar spectrophotometer (BMG Labtech). The fractional inhibitory concentration was calculated as follows: ΣFIC = [(MIC of A in combination)/(MIC of A alone)] + [(MIC of B in combination)/(MIC of B alone)].

S. aureus NCTC 13616 = assay: Time-kill assay; format: cell-based; conditions: 4x MIC, 24 hours
Description: Time-kill assays were performed as defined previously.

S. aureus = assay: MIC (microbroth dilution); format: cell-based, Staphylococcus aureus; conditions: Staphylococcus aureus
Description: as §1

[1] = Enterococcus faecalis, NCTC775, NCTC 775, read-out: MIC
[2] = Enterococcus faecalis, NCTC12204, NCTC 12204, read-out: MIC

Structure (SMILES): O=C(O)c1cn(C2CC2)c2cc(N3CCNCC3)c(F)cc2c1=O [Ciprofloxacin, ciprofloxacin, reference compound]
MIC (E. faecalis; EF602): 64 µg/mL (≈ 193 µM)
MIC (E. faecalis; [1]): 1 µg/mL (≈ 3.02 µM)
MIC (E. faecalis; [2]): 1 µg/mL (≈ 3.02 µM)
MIC (E. faecalis; NCTC 775): 1 µg/mL (≈ 3.02 µM)
MIC (E. faecium; EF205): 128 µg/mL (≈ 386 µM)
MIC (E. faecium; NCTC 12204): 1 µg/mL (≈ 3.02 µM)
MIC (S. haemolyticus): 16 µg/mL (≈ 48.3 µM)
MIC (Acinetobacter baumannii; Acinetobacter baumannii, 86, oxa23): 128 µg/mL (≈ 386 µM)
MIC (Acinetobacter baumannii; Acinetobacter baumannii, 96, oxa23): 128 µg/mL (≈ 386 µM)
MIC (Acinetobacter baumannii; Acinetobacter baumannii, A318): 32 µg/mL (≈ 96.6 µM)
MIC (Acinetobacter baumannii; Acinetobacter baumannii, A319): 32 µg/mL (≈ 96.6 µM)
MIC (Acinetobacter baumannii; Acinetobacter baumannii, A600 colR): 32 µg/mL (≈ 96.6 µM)
MIC (Acinetobacter baumannii; Acinetobacter baumannii, AB01335 adeG183::T26): 4 µg/mL (≈ 12.1 µM)
MIC (Acinetobacter baumannii; Acinetobacter baumannii, AB05215 adeS132::T26): 2 µg/mL (≈ 6.04 µM)
MIC (Acinetobacter baumannii; Acinetobacter baumannii, AB05218 adeS141::T26): 4 µg/mL (≈ 12.1 µM)
MIC (Acinetobacter baumannii; Acinetobacter baumannii, AB05219 adeR103::T26): 4 µg/mL (≈ 12.1 µM)
MIC (Acinetobacter baumannii; Acinetobacter baumannii, AB05222 adeR160::T101): 2 µg/mL (≈ 6.04 µM)
MIC (Acinetobacter baumannii; Acinetobacter baumannii, AB05226 adeA165::T26): 4 µg/mL (≈ 12.1 µM)
MIC (Acinetobacter baumannii; Acinetobacter baumannii, AB05227 adeA138::T26): 2 µg/mL (≈ 6.04 µM)
MIC (Acinetobacter baumannii; Acinetobacter baumannii, AB05228 adeB150::T26): 2 µg/mL (≈ 6.04 µM)
MIC (Acinetobacter baumannii; Acinetobacter baumannii, AB05230 adeB181::T26): 2 µg/mL (≈ 6.04 µM)
MIC (Acinetobacter baumannii; Acinetobacter baumannii, BAA1709, BAA-1709, read-out: MIC): 0.25 µg/mL (≈ 0.754 µM)
MIC (Acinetobacter baumannii; Acinetobacter baumannii, BAA1710, BAA-1710 (AYE), read-out: MIC): 64 µg/mL (≈ 193 µM)
MIC (Acinetobacter baumannii; Acinetobacter baumannii, BAA2093, BAA-2093, read-out: MIC): ≤ 0.125 µg/mL
MIC (Acinetobacter baumannii; Acinetobacter baumannii, NCTC10303, NCTC 10303, read-out: MIC): 0.5 µg/mL (≈ 1.51 µM)
MIC (Acinetobacter baumannii; Acinetobacter baumannii, NCTC12156, NCTC 12156, read-out: MIC): 1 µg/mL (≈ 3.02 µM)
MIC (Acinetobacter baumannii; Acinetobacter baumannii, NCTC13302, NCTC 13302, oxa24, read-out: MIC): 32 µg/mL (≈ 96.6 µM)
MIC (Acinetobacter baumannii; Acinetobacter baumannii, NCTC13424, NCTC 13424, oxa23): > 128 µg/mL
MIC (Acinetobacter baumannii; Acinetobacter baumannii, UKA1, oxa23, read-out: MIC): 8 µg/mL (≈ 24.1 µM)
MIC (Acinetobacter baumannii; Acinetobacter baumannii, UKA2, Low resistance, read-out: MIC): 64 µg/mL (≈ 193 µM)
MIC (Acinetobacter baumannii; Acinetobacter baumannii, UKA9, read-out: MIC): 0.25 µg/mL (≈ 0.754 µM)
MIC (Acinetobacter baumannii; Acinetobacter baumannii, UKA12, oxa23): > 128 µg/mL
MIC (Acinetobacter baumannii; Acinetobacter baumannii, UKA13, oxa23): > 128 µg/mL
MIC (Acinetobacter baumannii; Acinetobacter baumannii, UKA15, oxa23, read-out: MIC): 16 µg/mL (≈ 48.3 µM)
MIC (Acinetobacter baumannii; Acinetobacter baumannii, UKA19, read-out: MIC): 8 µg/mL (≈ 24.1 µM)
MIC (Acinetobacter baumannii; Acinetobacter baumannii, W1, read-out: MIC): 128 µg/mL (≈ 386 µM)
MIC50 (Acinetobacter baumannii; Acinetobacter baumannii, panel of 25 A. baumannii strains): 32 µg/mL (≈ 96.6 µM)
MIC (Acinetobacter baumannii; BAA-1710 (AYE), listed as 1): > 128 µg/mL
MIC (Pseudomonas aeruginosa; NCTC 13437): 64 µg/mL (≈ 193 µM)
MIC (Pseudomonas aeruginosa; Pseudomonas aeruginosa, PAO1, PAO1): 0.25 µg/mL (≈ 0.754 µM)
MIC (E. coli; 319238/UR): > 128 µg/mL
MIC (E. coli; LEC077): 0.25 µg/mL (≈ 0.754 µM)
MIC (E. coli; LEC081): 0.25 µg/mL (≈ 0.754 µM)
MIC +50 (0.25x MIC) (A. baumannii; A. baumannii ATCC 17978): 0.0017 to 0.188 µg/mL
MIC +50 (0.5x MIC) (A. baumannii; A. baumannii ATCC 17978): 0.007 to 0.055 µg/mL
MIC +50 (0.25x MIC) (A. baumannii; A. baumannii AYE): 3.5 to 15.5 µg/mL
MIC +50 (0.5x MIC) (A. baumannii; A. baumannii AYE): 0.188 to 0.9 µg/mL
MIC (A. baumannii; ATCC17978, read-out: MIC alone): 0.25 µg/mL
MIC (A. baumannii; read-out: MIC alone): 64 µg/mL
time-kill profile (S. aureus NCTC 13616): comparable bacteriostatic profiles

Structure (SMILES): O=C(O)c1cn(C2CC2)c2cc(N3CCN[C@@H](Cc4cccc5ccccc45)C3)c(F)cc2c1=O [Compound 12, (S)-1-Cyclopropyl-6-fluoro-7-(3-(naphthalen-1-ylmethyl)piperazin-1-yl)-4-oxo-1,4-dihydroquinoline-3-carboxylic acid]
MIC (S. aureus; ATCC9144, ATCC 9144, read-out: MIC): 4 µg/mL (≈ 8.48 µM)
MIC (S. aureus; NCTC13277, NCTC 13277, read-out: MIC): 8 µg/mL (≈ 17 µM)
MIC (S. aureus; NCTC13616, NCTC 13616, read-out: MIC): 8 µg/mL (≈ 17 µM)
MIC (S. aureus; SA-1199, read-out: MIC): 2 µg/mL (≈ 4.24 µM)
MIC (S. aureus; SA-1199B (NorA-overexpressing)): 4 µg/mL (≈ 8.48 µM)
MIC (S. aureus; USA300, USA300, read-out: MIC): 8 to 16 µg/mL (≈ 17 to 33.9 µM)
MIC (E. faecalis; [1]): 8 µg/mL (≈ 17 µM)
MIC (E. faecalis; Enterococcus faecalis, NCTC12201, NCTC 12201, read-out: MIC): 8 µg/mL (≈ 17 µM)
MIC (E. faecalis; [2]): 8 µg/mL (≈ 17 µM)

MIC +50 (0.25x MIC) (A. baumannii; A. baumannii ATCC 17978): 1.88 to 3.76 µg/mL
MIC +50 (0.5x MIC) (A. baumannii; A. baumannii ATCC 17978): 0.014 to 0.55 µg/mL
MIC +50 (0.25x MIC) (A. baumannii; A. baumannii AYE): 56 to 248 µg/mL
MIC +50 (0.5x MIC) (A. baumannii; A. baumannii AYE): 0.375 to 136 µg/mL
MIC (A. baumannii; ATCC17978, A. baumannii ATCC 17978, read-out: MIC alone): 4 µg/mL
MIC (A. baumannii; A. baumannii AYE, read-out: MIC alone): 256 µg/mL
Structure (SMILES): NC[C@H]1O[C@H](O[C@H]2[C@H](O)[C@@H](O[C@H]3O[C@H](CO)[C@@H](O)[C@H](N)[C@H]3O)[C@H](N)C[C@@H]2N)[C@H](N)C[C@@H]1O [Tobramycin]
